Measurements reported in the NIST ThermoML archive (doi:10.1016/j.jct.2013.01.032).
± gives the expanded uncertainty stated by the source.

Conditions: 101.33 kPa, Liquid; for speed of sound: Sing-around technique in a fixed-path interferometer; for mass density: Vibrating tube method

SMILES	speed of sound (293.15 K) [m/s]	mass density (293.15 K) [kg/m3]	speed of sound (308.15 K) [m/s]	mass density (308.15 K) [kg/m3]	speed of sound (323.15 K) [m/s]	mass density (323.15 K) [kg/m3]
CCCCn1cc[n+](C)c1.O=S(=O)([O-])C(F)(F)F [1-butyl-3-methylimidazolium trifluoromethanesulfonate]	1402.9 ± 1.3	1303.7 ± 0.6	1369.1 ± 1.3	1291.7 ± 0.6	1336.5 ± 1.3	1279.9 ± 0.6
CCC(C)O (stereo not given) [butan-2-ol]	1230 ± 1	806.56 ± 0.18	1175.8 ± 0.9	794 ± 0.19	1120.3 ± 0.9	780.5 ± 0.19
CCCO [propan-1-ol]	1223.9 ± 0.8	803.92 ± 0.14	1172.6 ± 0.8	791.84 ± 0.15	1122 ± 0.8	779.33 ± 0.16
CC(C)O [propan-2-ol]	1156.7 ± 0.8	785.1 ± 0.15		772.31 ± 0.16	1050.8 ± 0.7	758.7 ± 0.17

Second part, the compound after the results:

speed of sound (293.15 K) [m/s]	mass density (293.15 K) [kg/m3]	speed of sound (308.15 K) [m/s]	mass density (308.15 K) [kg/m3]	speed of sound (323.15 K) [m/s]	mass density (323.15 K) [kg/m3]	SMILES
1256.2 ± 0.8	809.54 ± 0.14	1205.9 ± 0.8	798.01 ± 0.15	1155.7 ± 0.8	786.15 ± 0.15	CCCCO [butan-1-ol]
1292.7 ± 1.3	814.53 ± 0.31	1242.4 ± 1.3	803.52 ± 0.31	1192.7 ± 1.3	792.15 ± 0.31	CCCCCO [pentan-1-ol]
